# In PMC6105827, “Antitrypanosomal 8-Hydroxy-Naphthyridines Are Chelators of Divalent Transition Metals” (Antimicrobial Agents and Chemotherapy, 2018):
# Read-outs that look alike come from different tables or passages of the source.
# Key:
# [1] = test system: T. brucei bloodstream forms; experiment: microbe, parasite or virus in culture
# Experimental: (§1) The clonal Leishmania donovani cell line LdBOB (derived from MHOM/SD/62/1S-CL2D) was grown as promastigotes at 28°C, as described previously ([53]). Bloodstream-form T. brucei MiTat 1.2 clone 221a and its derived subline, 2T1, were cultured at 37°C in the presence of 5% CO2 in HMI9-T medium, as described previously ([54]). The human carcinoma HepG2 cell line was grown at 37°C with 5% CO2 in minimal Eagle's medium (MEM) with GlutaMAX (1×; Sigma-Aldrich), nonessential amino acids (Sigma-Aldrich), and 10% FBS. Human HepG2 and THP-1 cells used in this study were ethically sourced from the ATCC.
# (§2) L. donovani intramacrophage ([7]), HepG2 ([55]), T. brucei ([56]), and L. donovani promastigote ([57]) compound sensitivity assays were carried out as described previously. Human HepG2 and THP-1 cells used in these assays were provided by the ATCC. Data were processed by using GRAFIT (version 5.0.4; Erithacus Software) and fitted to a 2-parameter equation to obtain the effective concentration inhibiting growth by 50% (EC50). Data are presented as the means of results from at least two independent experiments.
# (§3) In the first instance, the maximum tolerated concentrations of ZnCl2, CaCl2, CuCl2, MgCl2, MnCl2, and FeCl2 were determined for each cell type. […] Standard drug sensitivity assays were carried out (as described above) for each cell type with compounds 1, 2, and 3 in the presence and absence of the maximum tolerated concentration of metal salt.
# THP-1 cells = experiment: THP-1 cell sensitivity; format: cell-based; conditions: Homo sapiens
# Experimental: as §2
# [2] = test system: L. donovani promastigotes; experiment: Generation of an 8-HNT-resistant L. donovani cell line; format: cell-based, Leishmania donovani
# Experimental: Resistant lines were generated as described previously ([31]), using compound 2 in L. donovani promastigotes. Starting at a sublethal concentration of 1 μM compound 2 in 3 independent cultures, concentrations were increased in a stepwise manner. However, after a total of 270 days in culture, promastigotes were unable to grow in ≥10 μM compound 2.
# [3] = Spectrophotometric UV-Vis titration and Job's plot of binding to divalent cations; format: physicochemical; conditions: combined concentration 200 μM in methanol; absorbance 475/390/375 nm
# Experimental: UV-visible (UV-Vis) titrations were carried out essentially as described previously ([65], [66]). Aliquots of metal divalent cations (concentrated stocks were made initially in water and then diluted in methanol) were added to a fixed concentration of 50 μM 8-HNT compound in methanol. After each aliquot addition, the incubation mixture was left to stabilize for 5 min at 25°C prior to scanning. Wavelength scanning was carried out at between 260 and 510 nm by using a UV-2401 PC UV-Vis spectrophotometer (Shimadzu). For Job's plot analyses ([66]), the combined concentration of 8-HNT and cation was fixed at 200 μM, and only the molar ratio of cation versus 8-HNT compound varied. Changes of the absorption at 475, 390, and 375 nm were indicative of cation complex formation with compounds 1 to 3, respectively. Specific absorbance at these wavelengths was determined and plotted against the molar ratio of compound to cation to determine complex stoichiometry ([66]).
# [4] = test system: L. donovani promastigotes; experiment: L. donovani promastigote compound sensitivity assay (with/without metal salts); conditions: for EC50: Leishmania donovani; for Shift: promastigotes; for Tolerated concentration of exogenous metal salt: L. donovani promastigotes
# Experimental: as §1, §2, §3
# HepG2 cells = experiment: HepG2 compound sensitivity assay (with/without ZnCl2); conditions: for EC50: Homo sapiens
# Experimental: as §1, §2, §3
# [5] = test system: L. donovani intramacrophage amastigotes; experiment: L. donovani intramacrophage compound sensitivity assay; format: cell-based; conditions: Leishmania donovani; L. donovani intramacrophage amastigotes; ≥3 independent replicates; read-out: Intra-macrophage EC50
# Experimental: as §2
# [6] = Cell-free fluorescence-based (FluoZin-3 salt) zinc binding assay; conditions: compounds and DFMO 1 to 100 μM; TPEN 10 μM
# Experimental: ZnCl2 (5 μM) was incubated with various concentrations of our three 8-HNT compounds followed by the addition of 125 nM FluoZin-3 salt dye. Reaction mixtures were preincubated for 20 min at RT and then aliquoted into a black 96-well plate. Fluorescence was then measured with a Pherastar spectrophotometer (excitation at 485 nm and emission at 520 nm). Calculations were carried out in Excel.
# L. donovani = conditions: cited from earlier work
# [7] = test system: L. donovani promastigotes; experiment: Intracellular Zn2+ measurement with FluoZin-3 in L. donovani; format: cell-based, Leishmania donovani; conditions: 8-HNT compounds 5 μM, TPEN 8 μM
# Experimental: (§4) L. donovani promastigotes were grown to 2 × 10^7 cells ml^−1 and harvested by centrifugation (10 min at 1,600 × g). T. brucei bloodstream forms were grown to 2 × 10^6 cells ml^−1 and harvested by centrifugation (5 min at 800 × g). Parasites were washed with PBS and resuspended to a final concentration of 2.5 × 10^7 parasites ml^−1 in fresh PBS. Cells were incubated with FluoZin-3 (final concentration, 5 μM), pluronic acid (final concentration, 5 μM), and 14 mM glucose (T. brucei only). Parasites were incubated for 60 min at room temperature (RT), washed three times with PBS, and then resuspended in PBS (with 14 mM glucose for T. brucei only) before being aliquoted into a black, clear-bottomed 96-well plate (final concentration of 2.5 × 10^7 cells ml^−1). 8-HNT or control compounds were added directly to cells, and fluorescence was measured immediately by using a Pherastar fluorescence spectrophotometer (excitation at 485 nm and emission at 520 nm). Calculations were performed in Excel. […] Parasites were confirmed to be viable by microscopy after the completion of the experiment.
# [8] = test system: T. brucei bloodstream forms; experiment: Intracellular Zn2+ measurement with FluoZin-3 in T. brucei; format: cell-based, Trypanosoma brucei; conditions: 8-HNT compounds 5 μM, TPEN 8 μM
# Experimental: as §4
# L. major = test system: L. major; design: method as in PMID 7768775; conditions: cited from earlier work
# T. brucei = test system: T. brucei; design: method as in PMID 11849643; conditions: cited from earlier work
# [9] = Trypanosoma brucei, read-out: Mean EC50 ± SD, Plus cation, plus CaCl2 (3 mM)
# [10] = Trypanosoma brucei, read-out: Mean EC50 ± SD, Plus cation, plus CuCl2 (5 μM)
# [11] = Trypanosoma brucei, read-out: Mean EC50 ± SD, Plus cation, plus MgCl2 (1 mM)
# [12] = Trypanosoma brucei, read-out: Mean EC50 ± SD, Plus cation, plus MnCl2 (10 μM)
# [13] = Trypanosoma brucei, read-out: Mean EC50 ± SD, WT, absence of cation, CaCl2 experiment
# [14] = Trypanosoma brucei, read-out: Mean EC50 ± SD, WT, absence of cation, CuCl2 experiment
# [15] = Trypanosoma brucei, read-out: Mean EC50 ± SD, WT, absence of cation, FeCl2 experiment
# [16] = Trypanosoma brucei, read-out: Mean EC50 ± SD, WT, absence of cation, MgCl2 experiment
# [17] = Trypanosoma brucei, read-out: Mean EC50 ± SD, WT, absence of cation, MnCl2 experiment
# [18] = Trypanosoma brucei, read-out: Mean EC50 ± SD, WT, absence of cation, ZnCl2 experiment
# [19] = Trypanosoma brucei, read-out: T. brucei bsf EC50, bloodstream form (Fig. 1)
# [20] = read-out: EC50 values, WT, promastigotes, absence of cation, FeCl2 experiment
# [21] = read-out: EC50 values, WT, promastigotes, absence of cation, ZnCl2 experiment
# [22] = read-out: L. donovani pro EC50, promastigotes (Fig. 1)
# [23] = read-out: EC50 against bloodstream-form T. brucei, substance alone (Fig. S2), mean ± SEM
compound,measurement,setting,value
[Ca+2].[Cl-].[Cl-] [CaCl2],Maximum concentration of metal salt having a minimal impact on cell growth,[1]; T. brucei,3000 µM
COc1ccccc1-c1nc(-c2nc(C)n[nH]2)c(O)c2ncccc12 [Compound 2],EC50,THP-1 cells,> 50000 nM
same,Shift (fold),[1]; CaCl2 (3 mM) vs WT,1.0 fold
same,Shift (fold),[1]; CuCl2 (5 μM) vs WT,0.9 fold
same,Shift (fold),[1]; FeCl2 (10 μM) vs WT,2.4 fold
same,Shift (fold),[1]; MgCl2 (1 mM) vs WT,1.1 fold
same,Shift (fold),[1]; MnCl2 (10 μM) vs WT,0.8 fold
same,EC50,[1]; [9],1300 ± 60 nM
same,EC50,[1]; [10],1300 ± 60 nM
same,EC50,[1]; [11],900 ± 20 nM
same,EC50,[1]; [12],1200 ± 50 nM
same,EC50,[1]; [13],1200 ± 40 nM
same,EC50,[1]; [14],1400 ± 70 nM
same,EC50,[1]; [15],700 ± 60 nM
same,EC50,[1]; [16],800 ± 50 nM
same,EC50,[1]; [17],1400 ± 90 nM
same,EC50,[1]; [18],800 ± 50 nM
same,EC50,[1]; [19],790 nM
same,Shift (fold),[1]; ZnCl2 (200 μM) vs WT,19.7 fold
same,Concentration in which promastigotes were unable to grow,"[2]; after 270 days in culture, start 1 μM",≥ 10 µM
same,Development of resistance in L. donovani promastigotes,[2]; stepwise increasing concentrations over a 9-month period,could not develop any resistance
same,"Job's plot intercept, molar fraction (compound to Zn^2+)",[3],0.31
same,EC50,[4]; [20],100 ± 10 nM
same,EC50,[4]; [21],200 ± 40 nM
same,EC50,[4]; [22],180 nM
same,Shift,[4]; FeCl2 (100 μM) vs WT,6.8 fold
same,Shift,[4]; ZnCl2 (100 μM) vs WT,265.7 fold
same,Shift of EC50 for HepG2 cells by ZnCl2,HepG2 cells; 100 μM ZnCl2,7 fold
same,EC50,"HepG2 cells; HepG2, read-out: EC50 for HepG2 cells, absence of exogenous ZnCl2",47800 ± 3600 nM
same,EC50,"HepG2 cells; HepG2, read-out: HepG2 EC50",15900 nM
same,EC50,[5],600 nM
CC(NC(=O)c1ncc2cccnc2c1O)c1ccc(F)cc1 (stereo not drawn) [Compound 3],EC50,THP-1 cells,> 16000 nM
same,Shift (fold),[1]; CaCl2 (3 mM) vs WT,0.9 fold
same,Shift (fold),[1]; CuCl2 (5 μM) vs WT,1.1 fold
same,Shift (fold),[1]; FeCl2 (10 μM) vs WT,3.7 fold
same,Shift (fold),[1]; MgCl2 (1 mM) vs WT,0.9 fold
same,Shift (fold),[1]; MnCl2 (10 μM) vs WT,1.3 fold
same,EC50,[1]; [9],700 ± 40 nM
same,EC50,[1]; [10],800 ± 60 nM
same,EC50,[1]; [11],700 ± 50 nM
same,EC50,[1]; [12],1010 ± 40 nM
same,EC50,[1]; [13],800 ± 100 nM
same,EC50,[1]; [14],800 ± 50 nM
same,EC50,[1]; [15],900 ± 30 nM
same,EC50,[1]; [16],800 ± 50 nM
same,EC50,[1]; [17],800 ± 50 nM
same,EC50,[1]; [18],500 ± 30 nM
same,EC50,[1]; [19],520 nM
same,Shift (fold),[1]; ZnCl2 (200 μM) vs WT,12.0 fold
same,"Job's plot intercept, molar fraction (compound to Zn^2+)",[3],0.35
same,EC50,[4]; [20],100 ± 4 nM
same,EC50,[4]; [21],200 ± 10 nM
same,EC50,[4]; [22],220 nM
same,Shift,[4]; FeCl2 (100 μM) vs WT,1.9 fold
same,Shift,[4]; ZnCl2 (100 μM) vs WT,120.1 fold
same,EC50,"HepG2 cells; HepG2, read-out: HepG2 EC50",16100 nM
same,EC50,[5],200 nM
[Cl][Cu][Cl] [CuCl2],Maximum concentration of metal salt having a minimal impact on cell growth,[1]; T. brucei,5 µM
"NCCCC(N)(C(=O)O)C(F)F (stereo not drawn) [DFMO, difluoromethylornithine, reference compound]",Cell-free FluoZin-3 fluorescence (competition for Zn^2+ binding),[6],did not affect the fluorescence levels
same,"Effect of exogenous divalent cations, including Fe^2+ and Zn^2+, on potency against T. brucei",[1]; control,failed to alter the potency
same,EC50,[1]; [23],39500 ± 900 nM
[Cl][Fe][Cl] [FeCl2],Maximum concentration of metal salt having a minimal impact on cell growth,[1],10 µM
same,EC50,[1]; [23],16800 ± 1400 nM
same,Tolerated concentration of exogenous metal salt,[4],100 µM
[Cl-].[Cl-].[Mg+2] [MgCl2],Maximum concentration of metal salt having a minimal impact on cell growth,[1]; T. brucei,1000 µM
[Cl][Mn][Cl] [MnCl2],Maximum concentration of metal salt having a minimal impact on cell growth,[1]; T. brucei,10 µM
"c1ccc(CN(CCN(Cc2ccccn2)Cc2ccccn2)Cc2ccccn2)nc1 [TPEN, N,N,N′,N′-tetrakis(2-pyridylmethyl)ethane-1,2-diamine]",Cell-free FluoZin-3 fluorescence (competition for Zn^2+ binding),[6],reduction in the level of fluorescence
same,EC50,"[1]; Trypanosoma brucei, read-out: EC50 against bloodstream-form T. brucei, substance alone (Fig. S2), mean ± SEM",4100 ± 900 nM
same,Inhibition of L. donovani in vitro,L. donovani,inhibit
same,Intracellular zinc level (FluoZin-3 fluorescence),[7],decrease in fluorescence
same,Intracellular zinc level (FluoZin-3 fluorescence),[8],decrease in fluorescence
[Cl-].[Cl-].[Zn+2] [ZnCl2],Maximum concentration of metal salt having a minimal impact on cell growth,[1],200 µM
same,EC50,[1]; [23],619000 ± 12600 nM
same,Tolerated concentration of exogenous metal salt,[4],100 µM
same,Tolerated concentration of exogenous metal salt,HepG2 cells; HepG2 cells,100 µM
CC(=O)N(O)CCCCCNC(=O)CCC(=O)N(O)CCCCCNC(=O)CCC(=O)N(O)CCCCCN [deferoxamine],Growth inhibition of L. donovani in vitro,L. donovani,inhibit the growth
same,Growth inhibition of L. major in vitro,L. major,inhibits the growth
same,Growth inhibition of T. brucei in vitro,T. brucei,inhibit the growth
